Experimental data from US20040029965A1, “Formulations for reducing or eliminating toxicity of enviromental hormones containing ursodeoxycholic acid” (priority 2000, published 2004).

Tested on: Ovariectomized female B6C3F1 mice
Assay: Uterus weight changes by bisphenol A (uterine proliferation)
Format: in vivo
Conditions: UDCA 2 mg/day alone, s.c. for 4 days
Procedure: Ovariectomized female B6C3F1 mice of 5 weeks old, the average weight of which was 18 to 22 g and had been bred in CRJ, were purchased. They were acclimated under the constant breeding conditions, i.e. the constant temperature of 24±1° C., the humidity of 60±10% and the light and darkness cycle of 12 hours, for one week and then, utilized in the experiment. The animals were supplied with solid feed purchased from Purina and supplied with water ad libitum. After acclimation, test materials dissolved in corn oil were subcutaneously injected once a day for 4 days. The test materials used herein, stock solutions of bisphenol A and UDCA were prepared using ethanol. 2 mg of bisphenol A dissolved in 0.2 ml of corn oil was administered to the mice alone or in combination with UDCA once a day. The administration dose of UDCA was 0.2 or 2.0 mg, and corn oil was administered to the solvent control.
The results are expressed as Mean±Standard Deviation values. ANOVA was performed to evaluate the mean distribution of administered groups. In case that the significance was recognized in ANOVA, the Student's t-test was carried out in the levels of p<0.05 and p<0.01.

Question: How did the “Mean weight of uterus ± SD” value turn out when C[C@H](CCC(=O)O)[C@H]1CC[C@H]2[C@@H]3[C@@H](O)C[C@@H]4C[C@H](O)CC[C@]4(C)[C@H]3CC[C@]12C [UDCA, 3α, 7β-dihydroxy-5β-cholanoic acid] was run?
Answer: Its value is 6.96 ± 1.34.
